Measured values taken from patent US10117430B2, “Malononitrile compounds for controlling animal pests” (BASF SE, priority 2012, dated 2018).

Legend:
Assay type in all cases: in vivo
[1] = system: Yellow Fever Mosquito (Aedes aegypti); assay: whole plant or invertebrate; conditions: 48 h, in comparison with untreated controls, larval mortality after 2 days
Method: B.12 Yellow Fever Mosquito (Aedes aegypti)
For evaluating control of yellow fever mosquito (Aedes aegypti) the test unit consisted of 96-well-microtiter plates containing 200 μl of tap water per well and 5-15 freshly hatched A. aegypti larvae. The compounds or mixtures were formulated using a solution containing 75% water and 25% DMSO. Different concentrations of formulated compounds or mixtures were sprayed onto the insect diet at 2.5 μl, using a custom built micro atomizer, at two replications. After application, microtiter plates were incubated at 28±1° C., 80±5% relative humidity for 2 days. Larval mortality was then visually assessed.

[2] = system: Boll Weevil (Anthonomus grandis); assay: B.9 Boll weevil microtiter diet test, egg and larval mortality; conditions: 120 h, in comparison with untreated controls, egg and larval mortality after 5 days
Method: B.9 Boll Weevil (Anthonomus grandis)
(§1) For evaluating control of boll weevil (Anthonomus grandis) the test unit consisted of 24-well-microtiter plates containing an insect diet and 20-30 A. grandis eggs. The compounds were formulated using a solution containing 75% v/v water and 25% v/v DMSO. Different concentrations of formulated compounds were sprayed onto the insect diet at 20 μl, using a custom built micro atomizer, at two replications. After application, microtiter plates were incubated at about 23±1° C. and about 50±5% relative humidity for 5 days. Egg and larval mortality was then visually assessed.

[3] = system: Red Spider Mite (Tetranychus kanzawai); assay: B.10 Red spider mite test on sprayed cowpea beans; conditions: in comparison with untreated controls, 72 hours after treatment
Method: B.10 Red Spider Mite (Tetranychus kanzawai)
The active compound is dissolved at the desired concentration in a mixture of 1:1 (vol:vol) distilled water:acetone. Add surfactant (Alkamuls® EL 620) at the rate of 0.1% (vol/vol). The test solution is prepared at the day of use. Potted cowpea beans of 7-10 days of age were cleaned with tap water and sprayed with 5 ml of the test solution using air driven hand atomizer. The treated plants were allowed to air dry and afterwards inculated with 20 or more mites by clipping a cassava leaf section with known mite population. Treated plants were placed inside a holding room at about 25-27° C. and about 50-60% relative humidity. Percent mortality was assessed 72 hours after treatment.

[4] = system: Silverleaf Whitefly (Bemisia argentifolii); assay: B.5 Silverleaf whitefly test on sprayed cotton plants; conditions: 72 h, in comparison with untreated controls, 3 days after treatment
Method: B.5 Silverleaf Whitefly (Bemisia argentifolii)
The active compounds were formulated in cyclohexanone as a 10,000 ppm solution supplied in 1.3 ml ABgene® tubes. These tubes were inserted into an automated electrostatic sprayer equipped with an atomizing nozzle and they served as stock solutions for which lower dilutions were made in 50% acetone:50% water (v/v). A nonionic surfactant (Kinetic®) was included in the solution at a volume of 0.01% (v/v). Cotton plants at the cotyledon stage (one plant per pot) were sprayed by an automated electrostatic plant sprayer equipped with an atomizing spray nozzle. The plants were dried in the sprayer fume hood and then removed from the sprayer. Each pot was placed into a plastic cup and 10 to 12 whitefly adults (approximately 3-5 days old) were introduced. The insects were collected using an aspirator and 0.6 cm, nontoxic Tygon® tubing (R-3603) connected to a barrier pipette tip. The tip, containing the collected insects, was then gently inserted into the soil containing the treated plant, allowing insects to crawl out of the tip to reach the foliage for feeding. Cups were covered with a reusable screened lid (150-micron mesh polyester screen PeCap from Tetko, Inc.). Test plants were maintained in a growth room at 25° C. and 20-40% relative humidity for 3 days, avoiding direct exposure to fluorescent light (24 hour photoperiod) to prevent trapping of heat inside the cup. Mortality was assessed 3 days after treatment, compared to untreated control plants.

[5] = system: Green Peach Aphid (Myzus persicae); assay: B.3 Green peach aphid systemic test, artificial diet under membrane; conditions: 72 h, concentration of the test solution 2500 mg/L, 3 days
Excerpt: B.3 Green Peach Aphid (Myzus persicae)
For evaluating control of green peach aphid (Myzus persicae) through systemic means the test unit consisted of 96-well-microtiter plates containing liquid artificial diet under an artificial membrane. The compounds were formulated using a solution containing 75% v/v water and 25% v/v DMSO. Different concentrations of formulated compounds were pipetted into the aphid diet, using a custom built pipetter, at two replications. After application, 5-8 adult aphids were placed on the artificial membrane inside the microtiter plate wells. The aphids were then allowed to suck on the treated aphid diet and incubated at about 23±1° C. and about 50±5% relative humidity for 3 days. Aphid mortality and fecundity was then visually assessed.

[6] = system: Rice brown plant hopper (Nilaparvata lugens); assay: B.11 Rice brown plant hopper test on sprayed rice seedlings; conditions: in comparison with untreated controls, after 72 hours
Method: B.11 Rice brown plant hopper (Nilaparvata lugens)
Rice seedlings were cleaned and washed 24 hours before spraying. The active compounds were formulated in 50:50 acetone:water (vol:vol) and 0.1% vol/vol surfactant (EL 620) was added. Potted rice seedlings were sprayed with 5 ml test solution, air dried, placed in cages and inoculated with 10 adults. Treated rice plants were kept at about 28-29° C. and relative humidity of about 50-60%. Percent mortality was recorded after 72 hours.

[7] = system: Orchid Thrips (Dichromothrips corbetti); assay: B.4 Orchid thrips floral-immersion test; conditions: 96 h, in comparison with untreated controls, after 4 days
Method: B.4 Orchid Thrips (Dichromothrips Corbetti)
Dichromothrips corbetti adults used for bioassay are obtained from a colony maintained continuously under laboratory conditions. For testing purposes, the test compound is diluted to a concentration of 300 ppm (wt compound: vol diluent) in a 1:1 mixture of acetone:water (vol:vol), plus 0.01% vol/vol Kinetic® surfactant. Thrips potency of each compound is evaluated by using a floral-immersion technique. Plastic petri dishes are used as test arenas. All petals of individual, intact orchid flowers are dipped into treatment solution and allowed to dry. Treated flowers are placed into individual petri dishes along with 10-15 adult thrips. The petri dishes are then covered with lids. All test arenas are held under continuous light and a temperature of about 28° C. for duration of the assay. After 4 days, the numbers of live thrips are counted on each flower, and along inner walls of each petri dish. The level of thrips mortality is extrapolated from pre-treatment thrips numbers.

[8] = system: Vetch Aphid (Megoura viciae); assay: B.7 Vetch aphid test on broad bean leaf disks; conditions: foliar, 120 h, in comparison with untreated controls, 5 days
Method: B.7 Vetch Aphid (Megoura viciae)
For evaluating control of vetch aphid (Megoura viciae) through contact or systemic means the test unit consisted of 24-well-microtiter plates containing broad bean leaf disks. The compounds were formulated using a solution containing 75% v/v water and 25% v/v DMSO. Different concentrations of formulated compounds were sprayed onto the leaf disks at 2.5 μl, using a custom built micro atomizer, at two replications. After application, the leaf disks were air-dried and 5-8 adult aphids placed on the leaf disks inside the microtiter plate wells. The aphids were then allowed to suck on the treated leaf disks and incubated at about 23±1° C. and about 50±5% relative humidity for 5 days. Aphid mortality and fecundity was then visually assessed.

[9] = system: Cowpea Aphid (Aphis craccivora); assay: B.1 Cowpea aphid spray test on potted cowpea plants; conditions: in comparison with untreated controls, population reduction assessed after 24, 72 and 120 hours
Method: B.1 Cowpea Aphid (Aphis craccivora)
The active compounds were formulated in 50:50 (v/v) acetone:water. The test solution was prepared at the day of use. Potted cowpea plants colonized with approximately 100-150 aphids of various stages were sprayed after the pest population has been recorded. Population reduction was assessed after 24, 72, and 120 hours.

[10] = system: Southern Armyworm (Spodoptera eridania); assay: B.6 Southern armyworm test on sprayed lima bean plants; conditions: 96 h, in comparison with untreated controls, 4 days after treatment
Method: B.6 Southern Armyworm (Spodoptera eridania)
The active compounds were formulated in cyclohexanone as a 10,000 ppm solution supplied in 1.3 ml ABgene® tubes. These tubes were inserted into an automated electrostatic sprayer equipped with an atomizing nozzle and they served as stock solutions for which lower dilutions were made in 50% acetone:50% water (v/v). A nonionic surfactant (Kinetic®) was included in the solution at a volume of 0.01% (v/v). Lima bean plants (variety Sieva) were grown 2 plants to a pot and selected for treatment at the 1st true leaf stage. Test solutions were sprayed onto the foliage by an automated electrostatic plant sprayer equipped with an atomizing spray nozzle. The plants were dried in the sprayer fume hood and then removed from the sprayer. Each pot was placed into perforated plastic bags with a zip closure. Ten to 11 armyworm larvae were placed into the bag and the bags zipped closed. Test plants were maintained in a growth room at 25° C. and 20-40% relative humidity for 4 days, avoiding direct exposure to fluorescent light (24 hour photoperiod) to prevent trapping of heat inside the bags. Mortality and reduced feeding were assessed 4 days after treatment, compared to untreated control plants.

[11] = system: Green Soldier Stink Bug (Nezara viridula); assay: B.15 Green soldier stink bug test on sprayed soybean pods; conditions: 120 h, in comparison with untreated controls, after 5 days
Method: B.15 Green Soldier Stink Bug (Nezara viridula)
The active compound is dissolved at the desired concentration in a mixture of 1:1 (vol:vol) distilled water:aceteone. Surfactant (Kinetic HV) is added at a rate of 0.01% (vol/vol). The test solution is prepared at the day of use. Soybean pods were placed in microwavable plastic cups lined with moist filter paper and inoculated with ten 3rd instar N. viridula. Using a hand atomizer, an approximately 2 ml solution is sprayed into each cup. Treated cups were kept at about 28-29° C. and relative humidity of about 50-60%. Percent mortality was recorded after 5 days.

[12] = system: Mediterranean Fruitfly (Ceratitis capitata); assay: B.2 Mediterranean fruitfly microtiter diet test, egg and larval mortality; conditions: 120 h, in comparison with untreated controls, egg and larval mortality after 5 days
Method: B.2 Mediterranean Fruitfly (Ceratitis capitata)
as §1, with “Mediterranean fruitfly (Ceratitis capitata)” for “boll weevil (Anthonomus grandis)”, “microtiter” for “24-well-microtiter”, “50-80 C. capitata” for “20-30 A. grandis”, “5” for “20”, “28±1°” for “23±1°”, “80±5%” for “50±5%”

CC(c1ccc(F)cn1)C(C#N)(C#N)c1ccc(F)cc1 (stereo not drawn) [II-9]
≥ 75%: mortality at 2500 ppm [1] | mortality at 2500 ppm [2] | mortality at 500 ppm [3] | mortality at 500 ppm [4] | mortality at 2500 µg/mL [5] | mortality at 300 ppm [6]

N#CC(C#N)(Cc1cnc(C(F)(F)F)cn1)c1cccc(F)c1 [II-28]
≥ 75%: mortality at 500 ppm [7] | mortality at 2500 ppm [1] | mortality at 2500 ppm [2] | mortality at 500 ppm [3] | mortality at 500 ppm [4] | mortality at 2500 ppm [8] | mortality at 500 ppm [9]

N#CC(C#N)(Cc1ccc(C(F)(F)F)cn1)c1cc(F)cc(F)c1 [II-38]
≥ 75%: mortality at 500 ppm [7] | mortality at 2500 ppm [1] | mortality at 2500 ppm [2] | mortality at 300 ppm [10] | mortality at 500 ppm [4] | mortality at 2500 µg/mL [5] | mortality at 2500 ppm [8] | mortality at 500 ppm [9] | mortality at 300 ppm [6]

N#CC(C#N)(Cc1ccc(C(F)(F)F)cn1)c1cc(F)c(F)c(F)c1 [II-48]
≥ 75%: mortality at 500 ppm [7] | mortality at 2500 ppm [1] | mortality at 2500 ppm [2] | mortality at 2500 µg/mL [5] | mortality at 500 ppm [11] | mortality at 2500 ppm [12] | mortality at 2500 ppm [8] | mortality at 300 ppm [6]

N#CC(C#N)(Cc1ccc(F)nc1F)c1ccc(F)cc1 [II-51]
≥ 75%: mortality at 500 ppm [7] | mortality at 2500 ppm [1] | mortality at 500 ppm [3]

N#CC(C#N)(Cc1ccc(C(F)(F)F)nn1)c1ccc(F)cc1 [II-14]
≥ 75%: mortality at 2500 ppm [2] | mortality at 500 ppm [10] | mortality at 2500 µg/mL [5] | mortality at 500 ppm [9]

N#CC(C#N)(Cc1ncc(C(F)(F)F)cn1)c1ccc(F)cc1 [II-17]
≥ 75%: mortality at 500 ppm [7] | mortality at 2500 ppm [1] | mortality at 2500 ppm [2] | mortality at 500 ppm [10] | mortality at 500 ppm [4] | mortality at 2500 ppm [8] | mortality at 500 ppm [9]

CC(c1ccc(C(F)(F)F)cn1)C(C#N)(C#N)c1cc(F)c(F)c(F)c1 (stereo not drawn) [II-61]
≥ 75%: mortality at 500 ppm [7] | mortality at 2500 ppm [1] | mortality at 2500 ppm [2] | mortality at 2500 µg/mL [5] | mortality at 500 ppm [11] | mortality at 2500 ppm [12] | mortality at 2500 ppm [8] | mortality at 500 ppm [9] | mortality at 300 ppm [6]

N#CC(C#N)(Cc1ccc(C(F)(F)F)nc1)c1cc(F)c(F)c(F)c1 [II-43]
≥ 75%: mortality at 500 ppm [7] | mortality at 2500 ppm [1] | mortality at 2500 ppm [2] | mortality at 500 ppm [3] | mortality at 2500 µg/mL [5] | mortality at 2500 ppm [12] | mortality at 2500 ppm [8] | mortality at 500 ppm [9] | mortality at 300 ppm [6]

C#Cc1ccc(C(C#N)(C#N)Cc2ccc(C(F)(F)F)cn2)cc1 [II-33]
≥ 75%: mortality at 500 ppm [7] | mortality at 500 ppm [3]

N#CC(C#N)(Cc1cnc(C(F)(F)F)nc1)c1ccccc1 [II-20]
≥ 75%: mortality at 500 ppm [7] | mortality at 2500 ppm [1] | mortality at 2500 ppm [2] | mortality at 500 ppm [3] | mortality at 500 ppm [4] | mortality at 2500 µg/mL [5] | mortality at 500 ppm [11] | mortality at 2500 ppm [12] | mortality at 2500 ppm [8] | mortality at 500 ppm [9] | mortality at 300 ppm [6]

N#CC(C#N)(Cc1ccc(C(F)(F)F)nc1)c1cccc(F)c1 [II-19]
≥ 75%: mortality at 500 ppm [7] | mortality at 2500 ppm [1] | mortality at 2500 ppm [2] | mortality at 300 ppm [10] | mortality at 500 ppm [4] | mortality at 500 ppm [11] | mortality at 2500 ppm [12] | mortality at 2500 ppm [8] | mortality at 500 ppm [9]
